Data from US8685934B2, “Methods for treating extreme insulin resistance in patients resistant to previous treatment with other anti-diabetic drugs employing an SGLT2 inhibitor and compositions thereof” (Bristol-Myers Squibb Company, priority 2009, dated 2014).
Read-outs that look alike come from different tables or passages of the source.

What was measured:
[1] = test system: highly insulin-resistant T2DM patients poorly controlled with insulin plus metformin and/or thiazolidinediones; details: for Patients who required up-titration of insulin: throughout the 12-week double-blind period, placebo arm 4 patients; for Patients exposed to study medication for ≧84 days prior to insulin up-titration: versus 39.1% in the placebo arm
Description: Criteria for management of hyperglycemia were determined by fasting plasma glucose (FPG) measurements. For any FPG level >240 mg/dL at weeks 4 and 6, >220 mg/dL at week 8, or >200 mg/dL at week 10, the patient would be scheduled for a follow-up visit in 3 to 5 days. If FPG was still above the threshold at follow-up, a visit was scheduled in order to increase the insulin dose as clinically indicated. Patients who further lacked glycemic control despite up-titration, or whose modified insulin dose exceeded baseline, were discontinued from blinded treatment and entered into follow-up.
All patients were on insulin-sensitizer therapy for at least 6 weeks prior to enrollment and insulin-based therapy for at least 12 weeks prior to enrollment. The study protocol defined insulin-sensitizer therapy as metformin (stable dose ≧1000 mg) and/or pioglitazone (stable dose ≧30 mg) or rosiglitazone (stable dose 4 mg). Insulin-based therapy was defined as subcutaneous insulin for at least 12 weeks prior to enrollment, with 2 minimum insulin daily dose equivalent to 50 units (median 85 to 93 units across all study arms) of U100 insulin per day. The insulin regimen must have been stable for at least 6 weeks. In addition to 10 mg dapagliflozin or 20 mg dapagliflozin daily or placebo, 74.6% of patients received metformin (≧1000 mg daily) plus insulin; 16.9% of patients received metformin (≧1000 mg daily) plus pioglitazone (≧30 mg daily) or rosiglitazone (4 mg daily) plus insulin and 8.5% of patients received pioglitazone (≧30 mg daily) or rosiglitazone (4 mg daily) plus insulin.
Patients in Cohort 1 were evaluated for safety only. Patients in Cohort 2 were evaluated for safety and efficacy. The primary efficacy measure was change from baseline in HbAlc, at week 12, last observation carried forward (LOCF). If no week 12 assessment was available, the last observation prior to week 12 was used. Secondary efficacy measures included changes from baseline at week 12 (LOCF) in FPG and insulin dose, the proportion of patients achieving a decrease in HbAlc>0.5% from baseline at week 12 (LOCF), and the proportion of patients achieving HbAlc<7% at week 12 (LOCF). Tertiary endpoints included changes from baseline in total body weight and in postprandial glucose (PPG) measured by an oral glucose tolerance test (OGTT).
Patients in Cohort 2 were evaluated for safety and efficacy. The primary efficacy measure was change from baseline in HbAlc at week 12, last observation carried forward (LOCF). The analysis was done excluding data after up-titration of insulin. If no week 12 assessment was available, the last observation prior to week 12 was used.
For Cohort 2, the sample size target of 22 patients per treatment group was chosen to allow for the calculation of 95% confidence intervals for the primary endpoint with a half-width of 0.42% for each treatment group. This assumed a 1% standard deviation for the primary endpoint in each of the dapagliflozin and placebo arms. With the same assumption, the half-width of a 95% confidence interval for the difference between any two treatment mean changes was estimated to be 0.59%. The primary efficacy data set consisted of all randomized patients who took at least one dose of double-blind study medication during the treatment phase. The analyses of the efficacy variables (except change from baseline in insulin dose) were done excluding data after up-titration of insulin. The analyses for changes from baseline in HbAlc, FPG, insulin dose, and total body weight at week 12 (LOCF) were performed using an analysis of covariance (ANCOVA) model with treatment group as an effect and baseline value as a covariate. Point estimates and 95% confidence intervals were calculated for mean changes within each treatment group and for differences in mean changes between the dapagliflozin and placebo groups.

[2] = test system: highly insulin-resistant T2DM patients poorly controlled with insulin plus metformin and/or thiazolidinediones; details: for 24-hour urinary glucose, increase / Standing diastolic blood pressure, mean change / Standing systolic blood pressure, mean change / Serum hematocrit, median increase from baseline / Urinary glucose excretion, mean change from baseline: week 12; for Glomerular filtration rate, change compared to baseline: end of treatment; for Urinary glucose excretion, mean change from baseline: placebo −1.5
Description: (§1) This was a randomized, single- and double-blind, three-arm parallel group, placebo-controlled trial to determine if dapagliflozin effectively lowers hyperglycemia in highly insulin-resistant T2DM patients poorly controlled with insulin plus metformin and/or thiazolidinediones. The trial consisted of a qualification period of 10 to 21 days, a treatment phase of 12 weeks, and a follow-up phase of 4 weeks. During qualification and until day 1, patients maintained their stable dose of open-label OADs, as well as their stable dose of prescribed insulin.
(§2) The treatment phase utilized an adaptive trial design with two cohorts: Cohort 1, the insulin dose-setting group; and Cohort 2, the main experimental group. The purpose of Cohort 1 was to determine the ideal starting dose of insulin least likely to cause hypoglycemia when dapagliflozin would be added. In Cohort 1, four patients were assigned to 20 mg single-blind dapagliflozin on day 1 after having their insulin dose decreased by 50%, the greatest decrement possible in this adaptive design. These patients underwent 48-hour continuous blood glucose monitoring (CGM) during the first week of treatment. Pursuant to the protocol, if at least one patient recorded a CGM value ≦100 mg/dL, confirmed by self-monitoring of blood glucose (SMBG), the total daily insulin dose for patients in Cohort 2 would be set at 50% of their usual dose that is, at an average of 52 to 54 units of insulin daily, and lesser dose reductions of insulin would not be tested. […] Patients in Cohort 2 were randomized on day 1 in a 1:1:1 ratio to double-blind placebo, 10 mg dapagliflozin or 20 mg dapagliflozin once daily, in addition to their open-label OAD(s) and 50% of their usual daily insulin, that is an average of 52 to 54 units of insulin daily.
(§3) Safety outcomes were assessed by treatment-emergent adverse events, vital signs, ECGs and laboratory measurements, including 24-hour urine collections for volume and electrolytes.

[3] = test system: highly insulin-resistant T2DM patients poorly controlled with insulin plus metformin and/or thiazolidinediones; details: for Adverse events, % of patients: placebo 65.2%; for Patients with genital tract infections: double-blind period, placebo one; for Events of pollakiuria, patients: placebo four patients; for Patients who reported episodes of hypoglycemia: placebo three patients
Description: as §1, §2
Patients were scheduled for visits at weeks 1, 2, 4, 6, 8, 10, and 12 of treatment, and performed SMBG 5 times daily during the 3 to 5 days prior to visits. No dose modifications of blinded study medication or OAD(s) were allowed during the treatment phase. Guidelines were in place throughout the trial for managing hypo- and hyperglycemia. […] Additional down-titration could be implemented as clinically indicated to manage the risk of hypoglycemia.
as §3

## CCOc1ccc(Cc2cc([C@@H]3O[C@H](CO)[C@@H](O)[C@H](O)[C@H]3O)ccc2Cl)cc1 [Dapagliflozin, (2S,3R,4R,5S,6R)-2-(4-chloro-3-(4-ethoxybenzyl)phenyl)-6-(hydroxymethyl)tetrahydro-2H-pyran-3,4,5-triol]
[1]; Dapagliflozin 20 mg + insulin + OAD, week 12 LOCF, of 23 patients, excludes data after insulin up-titration
  Patients with ↓ HbA1c ≧ 0.5%, No., response: 15
[1]; Dapagliflozin 20 mg once daily + insulin (50% of usual dose) + OAD, Cohort 2, excludes data after insulin up-titration
  HbA1c, mean (SD), End of Double-blind (Week 12 LOCF): 7.8 (0.6) %
[1]; dapagliflozin 10 mg arm (n = 24)
  Patients who required up-titration of insulin: 1 patient
[1]; dapagliflozin 10 mg arm
  Patients exposed to study medication for ≧84 days prior to insulin up-titration: 66.7%
[1]; dapagliflozin 20 mg arm (n = 24)
  Patients who required up-titration of insulin: 3 patients
[1]; dapagliflozin 20 mg arm
  Patients exposed to study medication for ≧84 days prior to insulin up-titration: 66.7%
[1]; dapagliflozin treatment (dose not distinguished), insulin dose reduced by 50%
  Additional weight loss compared to placebo: -2.5 kg
[1]; insulin-resistant patients who had their baseline insulin reduced 50%
  HbAlc, PPG and weight versus placebo, in words: decreased HbAlc, PPG and weight more than placebo
[1]; week 12 (LOCF)
  Weight lowering versus placebo, in words: more likely to lower weight than placebo
[2]; 10 mg dapagliflozin
  24-hour urinary glucose, increase: ~85 grams per day
  Standing diastolic blood pressure, mean change: −1.2 mm Hg
  Standing systolic blood pressure, mean change: −7.2 mm Hg
[2]; 20 mg dapagliflozin
  Supine diastolic blood pressure, mean change: −5.8 mm Hg
  Supine systolic blood pressure, mean change: −5.5 mm Hg
  24-hour urinary glucose, increase: ~85 grams per day
  Standing diastolic blood pressure, mean change: −3.9 mm Hg
  Standing systolic blood pressure, mean change: −6.1 mm Hg
[2]; dapagliflozin 10 mg
  Serum uric acid, median change from baseline: -0.30 mg/dL
  Glomerular filtration rate, change compared to baseline: −0.84 mL/min/1.73 m^2
  Serum hematocrit, median increase from baseline: 2.5%
  Urinary glucose excretion, mean change from baseline: 83.5 g/24 h
[2]; dapagliflozin 10 mg, increased from 1921.0 mL at baseline
  Mean 24-hour urine output on treatment: 2285.8 mL
[2]; dapagliflozin 20 mg
  Serum uric acid, median change from baseline: -0.30 mg/dL
  Glomerular filtration rate, change compared to baseline: 1.45 mL/min/1.73 m^2
  Serum hematocrit, median increase from baseline: 3.05%
  Urinary glucose excretion, mean change from baseline: 85.2 g/24 h
[2]; dapagliflozin 20 mg, increased from 1808.8 mL at baseline
  Mean 24-hour urine output on treatment: 2253.1 mL
[3]; 10 mg dapagliflozin arm
  Adverse events, % of patients: 75.0%
[3]; 10 mg dapagliflozin group
  Patients with genital tract infections: none
[3]; 10 mg dapagliflozin, patient on enalapril, carvedilol and furosemide, discontinued after eleven days, resolved with oral rehydration
  Events of pre-renal azotemia: One
[3]; 10 mg dapagliflozin
  Events of pollakiuria, patients: two
[3]; 20 mg dapagliflozin arm
  Adverse events, % of patients: 66.7%
[3]; 20 mg dapagliflozin group (n = 24)
  Patients who reported episodes of hypoglycemia: six
[3]; 20 mg dapagliflozin group
  Patients with genital tract infections: five
[3]; 20 mg dapagliflozin
  Events of pollakiuria, patients: three
[3]; dapagliflozin 10 mg arm
  Patients who reported polyuria: One
  Patients with adverse events that led to discontinuation: One
[3]; dapagliflozin 10 mg group (n = 24)
  Patients who reported episodes of hypoglycemia: seven
[3]; dapagliflozin 20 mg arm
  Cases of microalbuminuria (resulted in discontinuation from the study): One
  Patients who reported polyuria: One
  Patients with adverse events that led to discontinuation: One
[3]; dapagliflozin 20 mg group
  Patients who experienced a serious adverse event: one
  Patients who reported a urinary tract infection: One
[3]; major/minor episodes were balanced across all groups
  Total hypoglycemic events versus placebo, in words: more frequently reported with dapagliflozin treatment than with placebo
[3]; whole study
  Deaths, in words: no deaths
